{"source": "patent US9288990B2", "about": "“Synergistic weed control from applications of penoxsulam and pethoxamid” (Dow AgroSciences, LLC, priority 2013, dated 2016)", "assay_type_in_all_cases": "in vivo", "key": {"[1]": {"system": "Chenopodium album L. (common lambsquarters, CHEAL)", "test": "Pre-emergence field trial, weed control of CHEAL", "procedure": "(§1) Field trials were conducted with applications made in the area of naturally occurring weed populations in Germany, France, Hungary and Italy. The soil was treated prior to the emergence of target plants. All treatments were applied using a randomized complete block trial design, plots 3 meters (m) wide by 8-10 m long, with 3 replications per treatment.\n(§2) Treatments consisted of penoxsulam and pethoxamid, applied alone and in combination. Spray solutions were prepared using an appropriate amount of dilution to treat the area of the plots based on use rates and water volumes necessary based on a per hectacre basis. Spray solutions were prepared and applied with the specified active ingredients in single and two-way combinations to be able to perform Colby synergy calculations. Formulated products were applied to the soil with a backpack or bicycle compressed air sprayer equipped with flat fas nozzles calibrated to deliver from 200 to 300 L/ha at a normal spray height above the solid, at spray pressures ranging from 210 to 350 kilopascals (kPa).\n(§3) The treated plots and control plots were rated blind at various intervals after application. Ratings were based on a scale of 0-100%, as discussed above, wherein 0% indicates no control of the undesired vegetation and 100% indicates complete control of the undesired vegetation.\n(§4) Colby's equation was used to determine the herbicidal effects expected from the mixtures, as described above. The results were measured at the evaluation intervals provided in Table 1 after the first application of the compositions. […] The herbicide tank mix combinations tested, application rates and ratios employed, plant species tested, and results are given below."}, "[2]": {"system": "Kickxia elantine (canker root, KICEL)", "test": "Pre-emergence field trial, weed control of KICEL", "procedure": "as §1, §2\n(§5) The treated plots and control plots were rated blind at various intervals after application. […]\n(§6) Colby's equation was used to determine the herbicidal effects expected from the mixtures, as described above. The results were measured at the evaluation intervals provided in Table 1 after the first application of the compositions. […]"}, "[3]": {"system": "Mercurialis annua (annual mercury, MERAN)", "test": "Pre-emergence field trial, weed control of MERAN", "conditions": "29 days", "procedure": "as §1, §2, §5, §6"}, "[4]": {"system": "Ambrosia artemisiifolia L. (common ragweed, AMBEL)", "test": "Pre-emergence field trial, weed control of AMBEL", "procedure": "as §1, §2, §3, §4"}, "[5]": {"system": "Echinochloa crus-galli (L.) P. Beauv. (barnyardgrass, ECHCG)", "test": "Pre-emergence field trial, weed control of ECHCG", "procedure": "as §1, §2, §3, §4"}, "[6]": {"system": "Xanthium strumarium L. (common cocklebur, XANST)", "test": "Pre-emergence field trial, weed control of XANST", "procedure": "as §1, §2, §3, §4"}, "[7]": {"system": "Polygonum persicaria L. (ladysthumb, POLPE)", "test": "Pre-emergence field trial, weed control of POLPE", "conditions": "54 days", "procedure": "as §1, §2, §5, §6"}, "[8]": {"conditions": "14 days, pethoxamid 1200 g ai/ha alone"}, "[9]": {"conditions": "28 days, pethoxamid 1200 g ai/ha alone"}, "[10]": {"conditions": "58 days, pethoxamid 1200 g ai/ha alone"}, "[11]": {"conditions": "14 days, penoxsulam 5 g ai/ha alone"}, "[12]": {"conditions": "28 days, penoxsulam 5 g ai/ha alone"}, "[13]": {"conditions": "28 days, penoxsulam 10 g ai/ha alone"}, "[14]": {"conditions": "58 days, penoxsulam 5 g ai/ha alone"}, "[15]": {"conditions": "58 days, penoxsulam 10 g ai/ha alone"}}}
{"smiles": "CCOCCN(C(=O)CCl)C(=C(C)C)c1ccccc1", "note": "[Pethoxamid, 2-chloro-N-(ethoxyethyl)-N-(2-methyl-1-phenylprop-1-enyl)acetamide]", "values": [{"measurement": "Mean % weed control", "setting": "[1]; [8]", "result": 26.67, "unit": "%"}, {"measurement": "Mean % weed control", "setting": "[1]; [9]", "result": 6.67, "unit": "%"}, {"measurement": "Mean % weed control", "setting": "[1]; 29 days, pethoxamid 1200 g ai/ha alone", "result": 0, "unit": "%"}, {"measurement": "Mean % weed control", "setting": "[1]; 46 days, pethoxamid 1200 g ai/ha alone", "result": 16.67, "unit": "%"}, {"measurement": "Mean % weed control", "setting": "[2]; KICEL, 29 days, pethoxamid 1200 g ai/ha alone", "result": 0, "unit": "%"}, {"measurement": "Mean % weed control", "setting": "[3]; pethoxamid 1200 g ai/ha alone", "result": 0, "unit": "%"}, {"measurement": "Mean % weed control", "setting": "[4]; [8]", "result": 33.33, "unit": "%"}, {"measurement": "Mean % weed control", "setting": "[4]; [9]", "result": 13.33, "unit": "%"}, {"measurement": "Mean % weed control", "setting": "[4]; [10]", "result": 13.33, "unit": "%"}, {"measurement": "Mean % weed control", "setting": "[5]; [9]", "result": 33.33, "unit": "%"}, {"measurement": "Mean % weed control", "setting": "[5]; [10]", "result": 16.67, "unit": "%"}, {"measurement": "Mean % weed control", "setting": "[6]; [9]", "result": 3.33, "unit": "%"}, {"measurement": "Mean % weed control", "setting": "[6]; [10]", "result": 0, "unit": "%"}, {"measurement": "Mean % weed control", "setting": "[7]; pethoxamid 1200 g ai/ha alone", "result": 72.33, "unit": "%"}]}
{"smiles": "COc1cnc(OC)n2nc(NS(=O)(=O)c3c(OCC(F)F)cccc3C(F)(F)F)nc12", "note": "[Penoxsulam]", "values": [{"measurement": "Mean % weed control", "setting": "[1]; [11]", "result": 26.67, "unit": "%"}, {"measurement": "Mean % weed control", "setting": "[1]; [12]", "result": 13.33, "unit": "%"}, {"measurement": "Mean % weed control", "setting": "[1]; 29 days, penoxsulam 5 g ai/ha alone", "result": 95, "unit": "%"}, {"measurement": "Mean % weed control", "setting": "[1]; 46 days, penoxsulam 5 g ai/ha alone", "result": 43.33, "unit": "%"}, {"measurement": "Mean % weed control", "setting": "[2]; 696 h", "result": 20, "unit": "%"}, {"measurement": "Mean % weed control", "setting": "[3]; penoxsulam 10 g ai/ha alone", "result": 36.67, "unit": "%"}, {"measurement": "Mean % weed control", "setting": "[4]; [11]", "result": 50, "unit": "%"}, {"measurement": "Mean % weed control", "setting": "[4]; 14 days, penoxsulam 10 g ai/ha alone", "result": 78.33, "unit": "%"}, {"measurement": "Mean % weed control", "setting": "[4]; [12]", "result": 33.33, "unit": "%"}, {"measurement": "Mean % weed control", "setting": "[4]; [13]", "result": 66.67, "unit": "%"}, {"measurement": "Mean % weed control", "setting": "[4]; [14]", "result": 33.33, "unit": "%"}, {"measurement": "Mean % weed control", "setting": "[4]; [15]", "result": 66.67, "unit": "%"}, {"measurement": "Mean % weed control", "setting": "[5]; [13]", "result": 76.67, "unit": "%"}, {"measurement": "Mean % weed control", "setting": "[5]; [14]", "result": 20, "unit": "%"}, {"measurement": "Mean % weed control", "setting": "[5]; [15]", "result": 63.33, "unit": "%"}, {"measurement": "Mean % weed control", "setting": "[6]; [12]", "result": 20, "unit": "%"}, {"measurement": "Mean % weed control", "setting": "[6]; [14]", "result": 10, "unit": "%"}, {"measurement": "Mean % weed control", "setting": "[7]; penoxsulam 5 g ai/ha alone", "result": 90, "unit": "%"}]}
